Each structure is given as a SMILES string. Entries after “also recorded” stand apart in the source; their conditions may differ.

One series deals with DENV. Put plainly: DENV RNA levels by RT-qPCR in DENV-infected Huh-7 cells. It counts as cell-based, dengue virus. The note with it: 0.5, 1, 5 and 10 μM, three days. The source says:
To further confirm the anti-DENV effect of compound 19a, we treated compound 19a at indicated concentrations in Huh-7 cells for three days.
Total cellular RNA samples were extracted after three days of compound treatment through a Total RNA Miniprep Purification Kit (GeneMark Biolab, Taiwan) following the manufacturer’s instructions, and then transcribed to complementary DNA (cDNA) with Moloney murine leukemia virus (M-MLV) reverse transcriptase (Promega, USA). The levels of DENV-2 replication and COX-2 were analyzed by RT-PCR as described previously with the following specific primers: a forward primer, 5′–[…] AGC–3′, and a reverse primer, 5′–[…]–3′, targeting the DENV-2 NS5 gene 44. DENV-2 and COX-2 RNA levels were normalized to the cellular glyceraldehyde-3-phosphate dehydrogenase (GAPDH) RNA level of each sample.
Figure 2 Inhibition of dengue virus (DENV) RNA expression in DENV-infected Huh-7 cells by 19a. Huh-7 cells were treated with 0.5, 1, 5, and 10 μM 19a for three days. Total RNA was extracted and quantified DENV RNA levels by RT-qPCR. DENV RNA expression was normalized by cellular glyceraldehyde-3-phosphate dehydrogenase (GAPDH) mRNA. Treatment with 0.1% dimethyl sulfoxide (DMSO) served as a mock control. The results are expressed as the means ± standard deviations (SD) of triplicate experiments.
On the technique in general: Real-time PCR tracks product formation cycle by cycle.

For the next series, the system named is Huh-7 cells. Put plainly: Cytotoxicity assay (XTT method). It counts as cell-based, Human. The procedure: (§1) For cytotoxicity tests, run in parallel with antiviral assays, plates at an initial density of 5 × 10^3 cells/well were treated with or without serial dilutions of test compounds. Cell viability was determined after 72 h at 37 °C in a humidified CO2 (5%) atmosphere by the (2,3-bis[2-methyloxy-4-nitro-5-sulfophenyl]-2H-tetrazolium-5-carboxanilide) (XTT) method.
(Tetrazolium assays rely on reduction of a dye to a coloured formazan, in cell work by metabolically active cells.)

A short description of series [1]: Cytotoxicity assay (XTT method). It counts as cell-based, Human. The conditions noted are these: human, mean ± SD. The method, then:
as §1

Broadly, the melting point is the temperature of the solid-liquid transition. By viability is commonly meant a read-out of living cells in per cent, often relative to untreated cells. For the compound `COc1ccc(-c2nc3ccccc3nc2C(O)c2ccccc2)cc1` (stereo not shown) [Compound 19a, [3-(4-Methoxyphenyl)quinoxalin-2-yl](phenyl)methanol], the melting point was 160.4 to 161.9 °C. Moreover, in the series on DENV, the “DENV RNA replication (RT-qPCR)” value is “dose-dependently reduced”. In addition, in the series on Huh-7 cells (200 μM, 72 h, XTT, mean ± SD), the “Huh-7 Cell % viability at 200 μM” value is given as 85.26 ± 5.63%. Besides, the cytotoxicity in words entry in the series with Huh-7 cells (Huh-7 cells) is on record as “non-cytotoxic; also recorded: no significant cell cytotoxicity”. For the same compound, the viability at 72 h, 20 µM in series [1] (Huh-7 cells, 20 μM, 72 h, XTT, read-out: Huh-7 Cell % viability at 20 μM) stood at 99.7 ± 1.65%. In series [1] (Huh-7 cells, 200 μM, 72 h, XTT, read-out: Huh-7 Cell % viability at 200 μM), the viability at 72 h, 200 µM is 85%. Further, the CC50 at 72 h in series [1] (uninfected Huh-7 cells, read-out: CC50 (concentration causing a 50% growth inhibition of uninfected Huh-7 cells)) was above 200 µM.

The values are drawn from article PMC6801405, “Discovery of 3-Arylquinoxaline Derivatives as Potential Anti-Dengue Virus Agents” (International Journal of Molecular Sciences, 2019).
